# Assay results taken from ChEMBL document CHEMBL5543059, “Discovery of anti-inflammatory natural flavonoids: Diverse scaffolds and promising leads for drug discovery” (Eur J Med Chem, 2023).
# Legend:
# BV-2 [1] = experiment: Anti-inflammatory activity in mouse BV-2 cells assessed as reduction in LPS-induced NO production pre-treated with compounds for 2 hrs followed by LPS-stimulation measured for 22 hrs by Griess reagent based analysis; format: functional, cell-based
# BV-2 [2] = experiment: Antiinflammatory activity in mouse BV-2 cells assessed as reduction in LPS-induced NO production incubated for 24 hrs by microplate reader analysis; format: functional, cell-based; conditions: BV-2, 24 h
# Neutrophil = experiment: Inhibition of fMLF/CB-induced human Neutrophil activation assessed as reduction in elastase release using MeO-Suc-Ala-Ala-Pro-Val-pnitroanilide as substrate incubated for 5 mins; format: functional, cell-based
# HepG2 = experiment: Anti-inflammatory activity against TNFalpha-induced human HepG2 cells assessed as inhibition of NF-kappaB activity pre-indubated for 1 hr followed by TNFalpha treatment measured for 5 hrs by luciferase based assay; format: functional, cell-based
# BV-2 [3] = experiment: Anti-inflammatory activity in mouse BV-2 cells assessed as reduction in LPS-induced NO production; format: functional, cell-based
# THP-1 [4] = experiment: Anti-inflammatory activity in human THP-1 cells assessed as inhibition of LPS-stimulated NO production by ELISA analysis; format: functional, cell-based
# BV-2 [5] = experiment: Anti-inflammatory activity against mouse BV-2 cells assessed as inhibition of LPS-induced PGE2 production at 50 uM pretreated for 2 hrs followed stimulated with LPS for 22 hrs by ELISA analysis relative to control; format: functional; set-up: scale not given: the % may be the effect or the level left; conditions: time 24 hrs
# BV-2 [6] = experiment: Anti-inflammatory activity against mouse BV-2 cells assessed as inhibition of LPS-induced IL-1beta secretion pretreated for 2 hrs followed stimulated with LPS for 22 hrs by ELISA analysis; format: functional, cell-based
# BV-2 [7] = experiment: Anti-inflammatory activity against mouse BV-2 cells assessed as inhibition of LPS-induced COX-2 expression pretreated for 2 hrs followed stimulated with LPS for 22 hrs by ELISA analysis; format: functional, cell-based
# BV-2 [8] = experiment: Anti-inflammatory activity against mouse BV-2 cells assessed as inhibition of LPS-induced IL-6 pre-treated for 2 hrs followed stimulated with LPS for 22 hrs; format: functional, cell-based
# BV-2 [9] = experiment: Anti-inflammatory activity against mouse BV-2 cells assessed as inhibition of LPS-induced COX-2 expression at 50 uM pretreated for 2 hrs followed stimulated with LPS for 22 hrs by ELISA analysis relative to control; format: functional; set-up: scale not given: the % may be the effect or the level left; conditions: time 24 hrs
# RAW264.7 [10] = experiment: Anti-inflammatory activity in mouse RAW264.7 cells assessed as reduction in LPS-induced NO production by ELISA analysis; format: functional, cell-based
# BV-2 [11] = experiment: Anti-inflammatory activity against mouse BV-2 cells assessed as inhibition of LPS-induced IL-6 at 50 uM pre-treated for 2 hrs followed stimulated with LPS for 22 hrs relative to control; format: functional; set-up: scale not given: the % may be the effect or the level left; conditions: time 24 hrs
# RAW264.7 [12] = experiment: Anti-inflammatory activity against LPS-stimulated mouse RAW264.7 cells assessed as inhibition of IL-6 expression at 10 uM by qRT-PCR analysis relative to control; format: functional; set-up: scale not given: the % may be the effect or the level left
# RAW264.7 [13] = experiment: Anti-inflammatory activity against LPS-stimulated mouse RAW264.7 cells assessed as inhibition of IL-6 expression at 100 uM by qRT-PCR analysis relative to control; format: functional; set-up: scale not given: the % may be the effect or the level left
# BV-2 [14] = experiment: Anti-inflammatory activity against mouse BV-2 cells assessed as inhibition of LPS-induced IL-1beta secretion at 50 uM pretreated for 2 hrs followed stimulated with LPS for 22 hrs by ELISA analysis relative to control; format: functional; set-up: scale not given: the % may be the effect or the level left; conditions: time 24 hrs
# BV-2 [15] = experiment: Anti-inflammatory activity against mouse BV-2 cells assessed as inhibition of LPS-induced PGE2 production pretreated for 2 hrs followed stimulated with LPS for 22 hrs by ELISA analysis; format: functional, cell-based
# RAW264.7 [16] = experiment: Antiinflammatory activity in mouse RAW264.7 cells assessed as reduction in iNOS protein expression at 5 to 40 uM relative to control; format: functional; set-up: scale not given: the % may be the effect or the level left; conditions: dose 5-40 µM
# RAW264.7 [17] = experiment: Anti-inflammatory activity in mouse RAW264.7 cells assessed as inhibition of LPS-induced NO production by Griess reagent assay; format: functional, cell-based
# RAW264.7 [18] = experiment: Antiinflammatory activity in LPS-activated mouse RAW264.7 cells assessed as inhibition of ROS production at 10 uM relative to control; format: functional; set-up: scale not given: the % may be the effect or the level left
# BV-2 [19] = experiment: Antiinflammatory activity in LPS-induced mouse BV-2 cells assessed as reduction in COX-2 protein expression by Western blot analysis; format: functional, cell-based
# Peritoneal macrophage [20] = experiment: Antiinflammatory activity in mouse peritoneal macrophages assessed as reduction in LPS-induced TNFalpha level at 20 uM incubated for 4 hrs by ELISA method relative to control; format: functional; set-up: scale not given: the % may be the effect or the level left
# RAW264.7 [21] = experiment: Antiinflammatory activity in mouse RAW264.7 cells assessed as decrease in LPS-stimulated IL-6 mRNA level incubated for 3 hrs by RT-qPCR analysis; format: functional, cell-based; conditions: RAW264.7, 3 h
# [22] = Anti-inflammatory activity in LPS-stimulated human PBMC cells assessed as inhibition of TNFalpha at 100 ug/ml relative to control; format: functional; set-up: scale not given: the % may be the effect or the level left; conditions: dose 100 µg/ml
# RAW264.7 [23] = experiment: Antiinflammatory activity in mouse RAW264.7 cells assessed as decrease in LPS-induced IL-6 secretion after 24 hrs by ELISA method; format: functional, cell-based; conditions: RAW264.7, 24 h
# RAW264.7 [24] = experiment: Antiinflammatory activity against mouse RAW264.7 cells assessed as reduction of LPS-induced NO production; format: functional, cell-based
# BV-2 [25] = experiment: Anti-inflammatory activity in mouse BV-2 cells assessed as inhibition of LPS-induced NO production preincubated with compound for 1 hrs followed by LPS stimulation and measured after 24 hrs by Griess reagent based assay; format: functional, cell-based
# RAW264.7 [26] = experiment: Antiinflammatory activity in mouse RAW264.7 cells assessed as reduction in LPS-induced COX-2 expression after 24 hrs by Western blot analysis; format: functional, cell-based; conditions: RAW264.7, 24 h
# RAW264.7 [27] = experiment: Antiinflammatory activity in mouse RAW264.7 cells assessed as reduction in LPS-induced iNOS expression after 24 hrs by Western blot analysis; format: functional, cell-based; conditions: RAW264.7, 24 h
# BV-2 [28] = experiment: Antiinflammatory activity in mouse BV-2 cells assessed as reduction in LPS-induced NO production pre-treated with compound for 1 hr followed by stimulated with LPS for 18 hrs by 2,3-diaminonaphthalene reagent based fluorescence analysis; format: functional, cell-based
# RAW264.7 [29] = experiment: Anti-inflammatory activity in mouse RAW264.7 cells assessed as inhibition of LPS-induced IL-6 production preincubated for 1 hr followed by LPS addition and measured after 24 hrs by ELISA; format: functional, cell-based
# RAW264.7 [30] = experiment: Anti-inflammatory activity in mouse RAW264.7 cells assessed as inhibition of LPS-induced TNFalpha production preincubated for 1 hr followed by LPS addition and measured after 24 hrs by ELISA; format: functional, cell-based
# RAW264.7 [31] = experiment: Anti-inflammatory activity in mouse RAW264.7 cells assessed as inhibition of LPS-induced IL-1beta production preincubated for 1 hr followed by LPS addition and measured after 24 hrs by ELISA; format: functional, cell-based
# B16-F10 = experiment: Antiinflammatory activity in mouse B16-F10 cells assessed as decrease in LPS-induced TNFalpha expression by Western blot analysis; format: functional, cell-based
# THP-1 [32] = experiment: Antiinflammatory activity in human THP-1 cells assessed as decrease in LPS-induced TNFalpha expression by Western blot analysis; format: functional, cell-based
# J774.A1 [33] = experiment: Anti-inflammatory activity against mouse J774.A1 cells assessed as inhibition of LPS-induced IL-1beta mRNA expression level pretreated for 30 mins followed by LPS-induction and measured after 6 hrs by RT-PCR analysis; format: functional, cell-based
# RAW264.7 [34] = experiment: Anti-inflammatory activity against mouse RAW264.7 cells assessed as inhibition of LPS-induced IL-1beta mRNA expression level pretreated for 30 mins followed by LPS-induction and measured after 6 hrs by RT-PCR analysis; format: functional, cell-based
# Rattus norvegicus [35] = experiment: Antiinflammatory activity in LPS-induced Sprague-Dawley rat assessed as reduction in IL-1beta production in plasma at 20 mg/kg, ip pretreated for 30 mins followed by LPS induction measured after 4 hrs by ELISA method relative to control; format: functional; set-up: scale not given: the % may be the effect or the level left; conditions: time 4.5 hrs
# Rattus norvegicus [36] = experiment: Antiinflammatory activity in LPS-induced Sprague-Dawley rat assessed as reduction in TNFalpha production in plasma at 20 mg/kg, ip pretreated for 30 mins followed by LPS induction measured after 4 hrs by ELISA method relative to control; format: functional; set-up: scale not given: the % may be the effect or the level left; conditions: time 4.5 hrs
# RAW264.7 [37] = experiment: Antiinflammatory activity in LPS-induced mouse RAW264.7 cells assessed as reduction in TNFalpha production pretreated for 30 mins followed by LPS induction measured after 2 hrs by ELISA method; format: functional, cell-based
# RAW264.7 [38] = experiment: Antiinflammatory activity in LPS-induced mouse RAW264.7 cells assessed as reduction in IL-1beta production pretreated for 30 mins followed by LPS induction measured after 2 hrs by ELISA method; format: functional, cell-based
# J774.A1 [39] = experiment: Antiinflammatory activity in LPS-induced mouse J774.A1 cells assessed as reduction in IL-1beta production pretreated for 30 mins followed by LPS induction measured after 2 hrs by ELISA method; format: functional, cell-based
# J774.A1 [40] = experiment: Antiinflammatory activity in LPS-induced mouse J774.A1 cells assessed as reduction in TNFalpha production pretreated for 30 mins followed by LPS induction measured after 2 hrs by ELISA method; format: functional, cell-based
# Peritoneal macrophage [41] = experiment: Antiinflammatory activity against LPS-stimulated mouse peritoneal macrophage assessed as TNF-alpha level; format: functional, cell-based
# BV-2 [42] = experiment: Anti-inflammatory activity against mouse BV-2 cells assessed as inhibition of LPS-induced IL-1beta secretion at 25 uM pretreated for 2 hrs followed stimulated with LPS for 22 hrs by ELISA analysis relative to control; format: functional; set-up: scale not given: the % may be the effect or the level left; conditions: time 24 hrs
structure (smiles),measurement,setting,value
O=C(/C=C/c1ccc(O)cc1)c1ccc(O)cc1O [ISOLIQUIRITIGENIN],IC50,BV-2 [1],5.22 µM
same,IC50,BV-2 [2],6.78 µM
Cc1c(O)cc2c(c1O)C(=O)[C@H](O)[C@@H](c1ccc(O)cc1)O2,IC50,Neutrophil,6 µM
O=c1c(O)c(-c2ccc(O)cc2)oc2cc(O)cc(O)c12 [KAEMPFEROL],IC50,HepG2,20.5 µM
same,IC50,BV-2 [3],10.6 µM
same,IC50,THP-1 [4],15.9 µM
same,Activity,BV-2 [5],65.2%
same,IC50,BV-2 [6],80.8 µM
same,IC50,BV-2 [7],60.1 µM
same,IC50,BV-2 [8],80.8 µM
same,Activity,BV-2 [9],51.4%
same,IC50,RAW264.7 [10],14.1 µM
same,Activity,BV-2 [11],28.1%
same,Activity,RAW264.7 [12],80.7%
same,Activity,RAW264.7 [13],64.5%
same,Activity,BV-2 [14],53.2%
same,IC50,BV-2 [15],52.4 µM
CC(C)=CCc1c([C@H]2Oc3cc(O)cc(O)c3C(=O)[C@@H]2O)cc2c(c1O)OC(C)(C)C=C2,Activity,RAW264.7 [16],42.8%
CC(C)=CCC[C@@]1(C)C=Cc2c(ccc(C(=O)/C=C/c3ccc(O)c(O)c3)c2O)O1,IC50,RAW264.7 [17],22.7 µM
C=CC(C)(C)c1cc(/C=C/C(=O)c2ccc(O)cc2)c(OC)cc1O [LICOAGROCHACONE A],Activity,RAW264.7 [18],80%
same,IC50,BV-2 [19],0.625 µg/mL
Oc1cc(O)c2c(c1)O[C@H](c1cc(O)c(O)c(O)c1)CC2,Activity,Peritoneal macrophage [20],22.6%
O=c1c(O)c(-c2ccc(O)c(O)c2)oc2cc(O)cc(O)c12 [QUERCETIN],IC50,RAW264.7 [21],22.5 µM
same,IC50,HepG2,15.1 µM
same,Activity,[22],28.6%
same,IC50,RAW264.7 [23],35.5 µM
same,Activity,RAW264.7 [12],83.3%
same,IC50,RAW264.7 [24],14.2 µM
same,IC50,BV-2 [25],12.6 µM
O=C1c2c(O)cc(O)cc2O[C@H](c2cc(O)c(O)c(O)c2)[C@H]1O [AMPELOPSIN],IC50,RAW264.7 [26],6.25 µg/mL
same,IC50,RAW264.7 [27],6.25 µg/mL
O=C1/C(=C/c2ccc(O)c(O)c2)Oc2cc(O)ccc21 [SULFURETIN],IC50,BV-2 [28],31.4 µM
O=c1c(O)c(-c2cc(O)c(O)c(O)c2)oc2cc(O)cc(O)c12 [MYRICETIN],IC50,RAW264.7 [29],19.7 µM
same,IC50,RAW264.7 [30],23.9 µM
same,IC50,RAW264.7 [31],19.2 µM
COc1cc(O)cc(O)c1C(=O)/C=C/c1ccccc1 [CARDAMOMIN],IC50,B16-F10,600 nM
same,IC50,THP-1 [32],1100 nM
COc1cc(O)c(C(=O)/C=C/c2ccccc2)c(O)c1,IC50,J774.A1 [33],42.8 µM
same,IC50,RAW264.7 [34],43.1 µM
COc1cc(O)c(CC=C(C)C)c2oc(=O)cc(-c3ccccc3)c12,Activity,Rattus norvegicus [35],55%
same,Activity,Rattus norvegicus [36],41.8%
same,IC50,RAW264.7 [37],21.3 µM
same,IC50,RAW264.7 [38],29.2 µM
same,IC50,J774.A1 [39],38.2 µM
same,IC50,J774.A1 [40],20.4 µM
O=c1c(-c2ccc(O)cc2)coc2cc(O)cc(O)c12 [GENISTEIN],IC50,Peritoneal macrophage [41],16.9 µM
COc1ccc(-c2cc(=O)c3c(O)cc(OC)c(O)c3o2)cc1,Activity,BV-2 [42],>50%
